Experimental data: PMC8359193, “Summary of reference chemicals evaluated by the fish short‐term reproduction assay, OECD TG229, using Japanese Medaka, Oryzias latipes” (Journal of Applied Toxicology, 2021)
Where a name gives a salt, the structure may show the parent alone.

What was measured:
[1] = system: Japanese medaka (Oryzias latipes); assay: Fish short-term reproduction assay (FSTRA, OECD TG229), 21-day flow-through exposure; settings: for Fertility rate (%) / Mortality (%) Female / Mortality (%) Male / Number of fertilized eggs / Number of total eggs / SSC Female / SSC Male / VTG (ng/mg of liver) Female / VTG (ng/mg of liver) Male: 21 days; for GSI Female / GSI Male / HSI Female / HSI Male / Length Female / Length Male / Weight Female / Weight Male: at completion of exposure; for effect on fecundity (number of total eggs), in words: within the test concentrations
Method: The experimental studies on the FSTRA for the 16 chemicals were conducted in two laboratories in Japan, the National Institute for Environmental Studies (NIES, Lab‐1) and the Institute of Environmental Ecology, IDEA Consultants Inc. (Lab‐2), in accordance with OECD TG229 (OECD, [2012a]) (Table 1).
The NIES‐R strain of Japanese medaka (O. latipes), one of the orange‐red varieties, was used in all the 16 chemical studies. For the studies, healthy and mature male and female medakas at 16 ± 2 weeks old were selected from a single‐stock population, which were bred within the test facilities. The test fish were maintained in conditions similar to the assay for at least 7 days, and spawning status was checked during the acclimation period. On the day the chemical exposure commenced, to ensure balanced distribution of test fish between the treatment groups for the reproductive status of the fish, the replicate vessels (fish tanks), with each containing three male and female medaka, were distributed to each treatment and control group, for example, by a randomized block design based on the number of fertilized eggs laid in the last 5–7 days during the acclimation, in each assay.
The water solubility of the test chemical was also taken into consideration when deciding the highest test concentration. To set the lower concentrations, a spacing factor ranging between two and five was used. All assays included a dilution water control (DWC).
Test solutions at the selected concentrations were prepared by diluting a stock solution, which was prepared by an adequate method depending on the physicochemical properties of the test chemicals, for example, by simply mixing the test chemical in dilution water by stirring and/or sonicating for an appropriate time or by using a solid–liquid saturator. In the two laboratories, flow‐through exposure systems, in which a series of test solutions at the target concentrations can be continuously prepared and delivered to test vessels at controlled flow rates (Haselman et al., [2016]; Watanabe et al., [2017]), were used for the exposure experiments.
In the FSTRA, three mature adult males and females in a test vessel were exposed together to the test chemicals in flow‐through condition for 3 weeks. In all the assays, each treatment group, including the DWC group, contained four replicate tanks. During the exposure period, the fish were fed a sufficient amount of live brine shrimp nauplii (newly hatched Artemia sp.) for daily spawning ad libitum. Fecal material in the tanks was appropriately removed by siphoning after feeding. Water temperature of test solutions was recorded for at least one vessel in each treatment and control group every day and for all vessels at least once a week. Furthermore, dissolved oxygen and pH of test solutions were measured for all test vessels at least once a week. Mortality and abnormal behavior and appearance in the fish exposed to test chemicals were daily observed, and any fish that died were removed from the tank as soon as possible. To assess the reproductive status, all eggs females spawned were collected every day. At the completion of the chemical exposure, surviving fish in each tank were sampled.
The eggs females released on the bottom of the tank were collected by siphoning, and the egg clutches still on female abdomen were carefully picked from the body of the females captured using a small net. All the eggs collected were microscopically observed and separately counted for fertilized and unfertilized.

Japanese medaka = settings: MMT, ref Flynn et al. (2017), cited from earlier work
[2] = hepatic VTG, 21-day exposure, measured conc.

In the case of `C[C@]12CC[C@@H]3c4ccc(O)cc4CC[C@H]3[C@@H]1CC[C@@H]2O` [E2, 17β‐Estradiol], the “LOEC on VTG induction in male (in molarity)” value ([1]; hepatic VTG, 21-day exposure) is reported as 81 pM, the “LOEC for VTG induction in males” value [1, 2] is reported as 22.1 ng/L and the “LOEC on male VTG induction: times smaller than the LOEC for CMP” value ([1]; in vivo) is reported as “more than 8,000 times”. For the same compound, the “effect on male GSI, in words” value ([1]; in vivo) was “significant decreasing”, the “Fertility rate (%)” value ([1]; measured conc. 22.1 ng/L) was 90% and the “Mortality (%) Female” value ([1]; measured conc. 22.1 ng/L) was 0%. The “Mortality (%) Male” value ([1]; measured conc. 22.1 ng/L) was 0%, the “Number of fertilized eggs” value ([1]; measured conc. 22.1 ng/L) was 18 and the “Number of total eggs” value ([1]; measured conc. 22.1 ng/L) was 20 ± 2.9 /female/day. For the same compound, the “SSC Female” value ([1]; measured conc. 22.1 ng/L) was 0 ± 0, the “SSC Male” value ([1]; measured conc. 22.1 ng/L) was 109 ± 10 and the “VTG (ng/mg of liver) Female” value ([1]; measured conc. 22.1 ng/L) was 3,420 ± 991 ng/mg of liver. The “VTG (ng/mg of liver) Male” value ([1]; measured conc. 22.1 ng/L) was 424 ± 379 ng/mg of liver, the “GSI Female” value ([1]; measured conc. 22.1 ng/L) was 10.3% and the “GSI Male” value ([1]; measured conc. 22.1 ng/L) was 0.82%. For the same compound, the “HSI Female” value ([1]; measured conc. 22.1 ng/L) was 4.4%, the “HSI Male” value ([1]; measured conc. 22.1 ng/L) was 2.0% and the “Length Female” value ([1]; measured conc. 22.1 ng/L) was 36.8 mm. The “Length Male” value ([1]; measured conc. 22.1 ng/L) was 36.4 mm, the “Weight Female” value ([1]; measured conc. 22.1 ng/L) was 573 mg and the “Weight Male” value ([1]; measured conc. 22.1 ng/L) was 507 mg. The “Fertility rate (%)” value ([1]; measured conc. 115 ng/L) was 95%, the “Mortality (%) Female” value ([1]; measured conc. 115 ng/L) was 8% and the “Mortality (%) Male” value ([1]; measured conc. 115 ng/L) was 8%. For the same compound, the “Number of fertilized eggs” value ([1]; measured conc. 115 ng/L) was 21, the “Number of total eggs” value ([1]; measured conc. 115 ng/L) was 22 ± 1.5 /female/day and the “SSC Female” value ([1]; measured conc. 115 ng/L) was 0 ± 0. The “SSC Male” value ([1]; measured conc. 115 ng/L) was 112 ± 10, the “VTG (ng/mg of liver) Female” value ([1]; measured conc. 115 ng/L) was 5,500 ± 1,370 ng/mg of liver and the “VTG (ng/mg of liver) Male” value ([1]; measured conc. 115 ng/L) was 13,400 ± 1900 ng/mg of liver. For the same compound, the “GSI Female” value ([1]; measured conc. 115 ng/L) was 11.4%, the “GSI Male” value ([1]; measured conc. 115 ng/L) was 0.67% and the “HSI Female” value ([1]; measured conc. 115 ng/L) was 4.3%. The “HSI Male” value ([1]; measured conc. 115 ng/L) was 2.5%, the “Length Female” value ([1]; measured conc. 115 ng/L) was 35.6 mm and the “Length Male” value ([1]; measured conc. 115 ng/L) was 35.8 mm. For the same compound, the “Weight Female” value ([1]; measured conc. 115 ng/L) was 517 mg, the “Weight Male” value ([1]; measured conc. 115 ng/L) was 512 mg and the “Fertility rate (%)” value ([1]; measured conc. 553 ng/L) was 85%. For the same compound, the “Mortality (%) Female” value ([1]; measured conc. 553 ng/L) was 17%, the “Mortality (%) Male” value ([1]; measured conc. 553 ng/L) was 8% and the “Number of fertilized eggs” value ([1]; measured conc. 553 ng/L) was 9.4. The “Number of total eggs” value ([1]; measured conc. 553 ng/L) was 13 ± 1.9 /female/day, the “SSC Female” value ([1]; measured conc. 553 ng/L) was 0 ± 0 and the “SSC Male” value ([1]; measured conc. 553 ng/L) was 97 ± 14. The “VTG (ng/mg of liver) Female” value ([1]; measured conc. 553 ng/L) was 18,900 ± 5,910 ng/mg of liver, the “VTG (ng/mg of liver) Male” value ([1]; measured conc. 553 ng/L) was 19,900 ± 3,570 ng/mg of liver and the “GSI Female” value ([1]; measured conc. 553 ng/L) was 11.2%. The “GSI Male” value ([1]; measured conc. 553 ng/L) was 0.31%, the “HSI Female” value ([1]; measured conc. 553 ng/L) was 4.4% and the “HSI Male” value ([1]; measured conc. 553 ng/L) was 3.2%. For the same compound, the “Length Female” value ([1]; measured conc. 553 ng/L) was 35.0 mm, the “Length Male” value ([1]; measured conc. 553 ng/L) was 35.0 mm and the “Weight Female” value ([1]; measured conc. 553 ng/L) was 512 mg. The “Weight Male” value ([1]; measured conc. 553 ng/L) was 488 mg, the “effect on fecundity (number of total eggs), in words” value ([1]; 21-day exposure) was “significant decrease” and the “LOEC on male VTG induction” value (Japanese medaka; long-term exposure) was 28 ng/L.
For `CC/C(=C(\c1ccccc1)c1ccc(OCCN(C)C)cc1)c1ccccc1` [TAM, tamoxifen citrate], the “time from initiation of treatment to drastic reduction of daily fecundity” value ([1]; both, NIES-R, Japanese medaka (Oryzias latipes), in vivo) was ≤ 3 days, the “LOEC for VTG induction in males” value [1, 2] was 10000 ng/L and the “LOEC for decrease of VTG in females” value [1, 2] was 10.0 µg/L. The “LOEC on female VTG: times lower than that for RAL” value ([1]; in vivo) was 70 times, the “Fertility rate (%)” value ([1]; measured conc. 10.0 μg/L) was 94% and the “Mortality (%) Female” value ([1]; measured conc. 10.0 μg/L) was 0%. For the same compound, the “Mortality (%) Male” value ([1]; measured conc. 10.0 μg/L) was 0%, the “Number of fertilized eggs” value ([1]; measured conc. 10.0 μg/L) was 12 and the “Number of total eggs” value ([1]; measured conc. 10.0 μg/L) was 13 ± 1.1 /female/day. For the same compound, the “SSC Female” value ([1]; measured conc. 10.0 μg/L) was 0 ± 0, the “SSC Male” value ([1]; measured conc. 10.0 μg/L) was 85 ± 11 and the “VTG (ng/mg of liver) Female” value ([1]; measured conc. 10.0 μg/L) was 666 ± 96 ng/mg of liver. For the same compound, the “VTG (ng/mg of liver) Male” value ([1]; measured conc. 10.0 μg/L) was 181 ± 30.0 ng/mg of liver, the “GSI Female” value ([1]; measured conc. 10.0 μg/L) was 7.3% and the “GSI Male” value ([1]; measured conc. 10.0 μg/L) was 0.89%. For the same compound, the “HSI Female” value ([1]; measured conc. 10.0 μg/L) was 3.6%, the “HSI Male” value ([1]; measured conc. 10.0 μg/L) was 2.2% and the “Length Female” value ([1]; measured conc. 10.0 μg/L) was 32.3 mm. For the same compound, the “Length Male” value ([1]; measured conc. 10.0 μg/L) was 33.6 mm, the “Weight Female” value ([1]; measured conc. 10.0 μg/L) was 369 mg and the “Weight Male” value ([1]; measured conc. 10.0 μg/L) was 419 mg. The “Fertility rate (%)” value ([1]; measured conc. 83.3 μg/L) was 76%, the “Mortality (%) Female” value ([1]; measured conc. 83.3 μg/L) was 8.3% and the “Mortality (%) Male” value ([1]; measured conc. 83.3 μg/L) was 0%. For the same compound, the “Number of fertilized eggs” value ([1]; measured conc. 83.3 μg/L) was 1.6, the “Number of total eggs” value ([1]; measured conc. 83.3 μg/L) was 2.2 ± 0.8 /female/day and the “SSC Female” value ([1]; measured conc. 83.3 μg/L) was 0 ± 0. The “SSC Male” value ([1]; measured conc. 83.3 μg/L) was 85 ± 7.0, the “VTG (ng/mg of liver) Female” value ([1]; measured conc. 83.3 μg/L) was 335 ± 138 ng/mg of liver and the “VTG (ng/mg of liver) Male” value ([1]; measured conc. 83.3 μg/L) was 319 ± 126 ng/mg of liver. The “GSI Female” value ([1]; measured conc. 83.3 μg/L) was 11.5%, the “GSI Male” value ([1]; measured conc. 83.3 μg/L) was 0.87% and the “HSI Female” value ([1]; measured conc. 83.3 μg/L) was 4.2%. The “HSI Male” value ([1]; measured conc. 83.3 μg/L) was 2.5%, the “Length Female” value ([1]; measured conc. 83.3 μg/L) was 32.9 mm and the “Length Male” value ([1]; measured conc. 83.3 μg/L) was 32.5 mm. The “Weight Female” value ([1]; measured conc. 83.3 μg/L) was 418 mg, the “Weight Male” value ([1]; measured conc. 83.3 μg/L) was 374 mg and the “effect on fecundity (number of total eggs), in words” value ([1]; 21-day exposure) was “statistically significant decrease”. For the same compound, the “LOEC on female VTG (reduction)” value (Japanese medaka) was 1.3 µg/L.
